Read-outs that look alike come from different tables or passages of the source.
System: 1b_Huh-Luc/Neo-ET cell line (bicistronic genotype 1b replicon in Huh 7 cells)
Test: HCV 1b replicon assay, luciferase readout
Assay type: cell-based, HCV genotype 1b
Conditions: Hepatitis C virus
Method: Biological activity of the compounds of the invention was determined using an HCV replicon assay. The 1b_Huh-Luc/Neo-ET cell line persistently expressing a bicistronic genotype 1b replicon in Huh 7 cells was obtained from ReBLikon GMBH. This cell line was used to test compound inhibition using luciferase enzyme activity readout as a measurement of compound inhibition of replicon levels.
On Day 1 (the day after plating), each compound is added in triplicate to the cells. Plates incubated for 72 […] prior to running the luciferase assay. Enzyme activity was measured using a Bright-Glo Kit (cat. number E2620) manufactured by Promega Corporation. The following equation was used to generate a percent control value for each compound.
%Control=(Average Compound Value/Average Control)*100
The EC50 value was determined using GraphPad Prism and the following equation:
Y=Bottom+(Top−Bottom)/(1+10̂((LogIC50−X)*HillSlope))
EC50 values of compounds are repeated several times in the replicon assay.

[1] = Huh-7, 1b_Huh-Luc/Neo-ET cell line, read-out: EC50, half-maximal inhibition of HCV 1b replication
[2] = Huh-7, class symbol, HCV genotype 1b replicon, read-out: Inhibition of HCV genotype 1b replicon

SMILES | EC50 [1] | EC50 [2] | EC50 (Huh-7, read-out: Inhibition of HCV genotype 1b replicon, class symbol, HCV genotype 1b replicon)
CNC(=O)c1c(-c2ccc(F)cc2)oc2cc3c(cc12)C(C)N(Cc1ccc(F)cc1)CCN3S(C)(=O)=O (stereo not drawn) [Compound B142] | 10 to 100 nM | 10 to 100 nM | 
CNC(=O)c1c(-c2ccc(Oc3ccc(F)cc3)cc2)oc2cc3c(cc12)[C@@H](C)CCCN3S(C)(=O)=O (single isomer, unassigned) [Compound B86] |  | 100 to 1000 nM | 
CN(O)C(=O)c1c(-c2ccc(F)cc2)oc2cc3c(cc12)CCCCN3S(C)(=O)=O [Compound B59] |  | 100 to 1000 nM | 
CNC(=O)c1c(-c2ccc(Oc3ccc(F)c(F)c3)cc2)nn2cc3c(cc12)C(C)CCCN3S(C)(=O)=O (stereo not drawn) [B97 (3)] |  |  | 10 to 100 nM
CNC(=O)c1c(-c2ccc(F)cc2)oc2cc3c(cc12)[C@H](C)c1ccccc1CN3S(C)(=O)=O (single isomer, unassigned) [Compound B203] | 10 to 100 nM | 10 to 100 nM | 
CNC(=O)c1c(-c2ccc(F)cc2)oc2cc3c(cc12)C(C)OCC(CO)N3S(C)(=O)=O (stereo not drawn) [Compound B219] | 10 to 100 nM | 10 to 100 nM | 
CNC(=O)c1c(-c2ccc(Oc3ccc(F)cc3)cc2)oc2cc3c(cc12)[C@H](C)O[C@H](COC(=O)CN(C)C)CN3S(C)(=O)=O [Compound B239] | ≤ 10 nM | < 10 nM | 
CNC(=O)c1c(-c2ccc(F)cc2)oc2cc3c(cc12)[C@@H](C)NC(=O)CN3S(C)(=O)=O (single isomer, unassigned) [Compound B209] |  | 100 to 1000 nM | 
CNC(=O)c1c(-c2ccc(F)cc2)oc2cc3c(cc12)[C@H](C)O[C@H](CCO)CN3S(C)(=O)=O [Compound B230] | 10 to 100 nM | 10 to 100 nM | 
CNC(=O)c1c(-c2ccc(Oc3ccc(F)cc3)cc2)oc2cc3c(cc12)[C@H](C)O[C@H](COC(=O)[C@@H](N)C(C)C)CN3S(C)(=O)=O [Compound B237] | ≤ 10 nM | < 10 nM | 
CNC(=O)c1c(-c2ccc(F)cc2)oc2cc3c(cc12)C(C)OC(C(=O)N(C)C)CN3S(C)(=O)=O (stereo not drawn) [Compound B223] | 10 to 100 nM | 10 to 100 nM | 
CNC(=O)c1c(-c2ccc(F)cc2)nn2cc3c(cc12)C(C)OC(CO)CN3S(C)(=O)=O (stereo not drawn) [Compound B242] |  | 100 to 1000 nM | 
CNC(=O)c1c(-c2ccc(Oc3ccc(F)cc3)cc2)oc2cc3c(cc12)C(C)CCCN3S(C)(=O)=O (stereo not drawn) [Compound B47] | 10 to 100 nM | 10 to 100 nM | 
CNC(=O)c1c(-c2ccc(Oc3ccc(F)cc3)cc2)oc2cc3c(cc12)[C@@H](C)n1nncc1CN3S(C)(=O)=O (single isomer, unassigned) [Compound B164] | 10 to 100 nM | 10 to 100 nM | 
CCN1CCN(S(C)(=O)=O)c2cc3oc(-c4ccc(F)cc4)c(C(=O)NC)c3cc2C1C (stereo not drawn) [Compound B144] | 10 to 100 nM | 10 to 100 nM | 
CNC(=O)c1c(-c2ccc(Oc3ccc(F)cc3)cc2)oc2cc3c(cc12)[C@H](C)N(C)C(=O)CN3S(C)(=O)=O (single isomer, unassigned) [Compound B181] | 10 to 100 nM | 10 to 100 nM | 
CNC(=O)c1c(-c2ccc(F)cc2)oc2cc3c(cc12)C(C)OC(C)(C)CN3S(C)(=O)=O (stereo not drawn) [Compound B183] | 10 to 100 nM | 10 to 100 nM | 
CNC(=O)c1c(-c2ccc(F)cc2)oc2cc3[nH]ccc3cc12 [Compound B25] |  | > 1000 nM | 
CNC(=O)c1c(-c2ccc(F)cc2)oc2cc3c(cc12)CCc1ccccc1CN3S(C)(=O)=O [Compound B200] | 10 to 100 nM | 10 to 100 nM | 
C=CCN1C(=O)CN(S(C)(=O)=O)c2cc3oc(-c4ccc(F)cc4)c(C(=O)NC)c3cc2C1C (stereo not drawn) [Compound B55] | 10 to 100 nM | 10 to 100 nM | 
CNC(=O)c1c(-c2ccc(F)cc2)oc2cc3c(cc12)C(C)O[C@@H](c1ccc(F)cc1)CN3S(C)(=O)=O (stereo partly drawn) [Compound B210] | 10 to 100 nM | 10 to 100 nM | 
CNC(=O)c1c(-c2ccc(Oc3ccc(F)cc3)cc2)oc2cc3c(cc12)[C@@H](C)OC(C)(C)CN3S(C)(=O)=O (single isomer, unassigned) [Compound B177] |  | 100 to 1000 nM | 
CNC(=O)c1c(-c2ccc(Oc3ccc(F)cc3)cc2)oc2cc3c(cc12)C(C)NC(=O)CN3S(C)(=O)=O (stereo not drawn) [Compound B175] | 10 to 100 nM | 10 to 100 nM | 
CNC(=O)c1c(-c2ccc(F)cc2)oc2cc3c(cc12)C(C)OC(CN=[N+]=[N-])CN3S(C)(=O)=O (stereo not drawn) [Compound B218] | ≤ 10 nM | < 10 nM | 
[2H]C([2H])([2H])NC(=O)c1c(-c2ccc(F)cc2)oc2cc3c(cc12)C1CC1CCN3S(C)(=O)=O (stereo not drawn) [Compound B128] | ≤ 10 nM | < 10 nM | 
CNC(=O)c1c(-c2ccc(F)cc2)oc2cc3c(cc12)C1(CCN3S(C)(=O)=O)CC1 [Compound B2] | 10 to 100 nM | 10 to 100 nM | 
CNC(=O)c1c(-c2ccc(Oc3ccc(F)cc3)cc2)oc2cc3c(cc12)[C@H](C)O[C@@H](CO)CN3S(C)(=O)=O [Compound B241] | 10 to 100 nM | 10 to 100 nM | 

SMILES | EC50 [1] | EC50 [2] | EC50 (Huh-7, read-out: Inhibition of HCV genotype 1b replicon, class symbol, HCV genotype 1b replicon)
CNC(=O)c1c(-c2ccc(F)cc2)oc2cc3c(cc12)C(C)n1nncc1CN3S(C)(=O)=O (stereo not drawn) [Compound B138] | ≤ 10 nM | < 10 nM | 
CNC(=O)c1c(-c2ccc(F)cc2)oc2cc3c(cc12)[C@@H](C)OC(C)(C)CN3S(C)(=O)=O (single isomer, unassigned) [Compound B185] |  | > 1000 nM | 
CNC(=O)c1c(-c2ccc(F)cc2)oc2cc3c(cc12)C(C)N(CC(F)F)CCN3S(C)(=O)=O (stereo not drawn) [Compound B139] | ≤ 10 nM | < 10 nM | 
CNC(=O)c1c(-c2ccc(F)cc2)oc2cc3c(cc12)C(C)OC(CNS(C)(=O)=O)CN3S(C)(=O)=O (stereo not drawn) [Compound B220] | 10 to 100 nM | 10 to 100 nM | 
CNC(=O)c1c(-c2ccc(F)cc2OC)oc2cc3c(cc12)C(C)CCCN3S(C)(=O)=O (stereo not drawn) [Compound B84] | 10 to 100 nM | 10 to 100 nM | 
CNC(=O)c1c(-c2ccc(Oc3ccccc3F)cc2)nn2cc3c(cc12)C(C)CCCN3S(C)(=O)=O (stereo not drawn) [Compound B95] |  | 100 to 1000 nM | 
CNC(=O)c1c(-c2ccc(F)cc2)oc2cc3c(cc12)C(O)CCCCN3S(C)(=O)=O (stereo not drawn) [Compound B88] |  | 100 to 1000 nM | 
CNC(=O)c1c(-c2ccc(Oc3ccc(F)cc3)cc2)oc2cc3c(cc12)[C@H](C)O[C@H](COC(=O)[C@H](C)N)CN3S(C)(=O)=O [Compound B238] | ≤ 10 nM | < 10 nM | 
CNC(=O)c1c(-c2ccc(F)cc2)oc2cc3c(cc12)[C@@H](C)O[C@@H](CS(C)(=O)=O)CN3S(C)(=O)=O [Compound B213] |  | > 1000 nM | 
CNC(=O)c1c(-c2ccc(F)cc2)oc2cc3c(cc12)C(C)N(C1CC1)CCN3S(C)(=O)=O (stereo not drawn) [Compound B124] | 10 to 100 nM | 10 to 100 nM | 
C=C1CCCN(S(C)(=O)=O)c2cc3oc(-c4ccc(F)cc4OC)c(C(=O)NC)c3cc21 [Compound B83] |  | > 1000 nM | 
CNC(=O)c1c(-c2ccc(F)cc2)oc2cc3c(cc12)C(C)N(CC(F)(F)F)CCN3S(C)(=O)=O (stereo not drawn) [Compound B107] | ≤ 10 nM | < 10 nM | 
CNC(=O)c1c(-c2ccc(F)cc2F)oc2cc3c(cc12)C(=O)CCCN3S(C)(=O)=O [Compound B49] |  | 100 to 1000 nM | 
CNC(=O)c1c(-c2ccc(F)cc2)oc2cc3c(cc12)[C@H](C)O[C@@H](CCS(C)(=O)=O)CN3S(C)(=O)=O [Compound B234] | 10 to 100 nM | 10 to 100 nM | 
CNC(=O)c1c(-c2ccc(Oc3ccccc3Cl)cc2)nn2cc3c(cc12)C(C)CCCN3S(C)(=O)=O (stereo not drawn) [Compound B91] |  | 100 to 1000 nM | 
CNC(=O)c1c(-c2ccc(F)cc2)oc2cc3c(cc12)C(C)N(C(=O)c1ccc(F)cc1)CCN3S(C)(=O)=O (stereo not drawn) [Compound B134] | 10 to 100 nM | 10 to 100 nM | 
CNC(=O)c1c(-c2ccc(F)cc2)nc2cc3c(cn12)C(C)CCCN3S(C)(=O)=O (stereo not drawn) [Compound B56] |  | 100 to 1000 nM | 
CNC(=O)c1c(-c2ccc(Oc3ccc(F)cc3)cc2)oc2cc3c(cc12)C(C)OC(CCO)CN3S(C)(=O)=O (stereo not drawn) [Compound B235] | 10 to 100 nM | 10 to 100 nM | 
CNC(=O)c1c(-c2ccc(F)cc2)oc2cc3c(cc12)[C@H](C)N1CCC[C@@H]1CN3S(C)(=O)=O (single isomer, unassigned) [Compound B131] | ≤ 10 nM | < 10 nM | 
CNC(=O)c1c(-c2ccc(F)cc2)oc2cc3c(cc12)C1CC1CCN3S(C)(=O)=O (stereo not drawn) [Compound B127] | ≤ 10 nM | < 10 nM | 
CNC(=O)c1c(-c2ccc(Oc3ccc(F)cc3)cc2)oc2cc3c(cc12)C(C)OC(C)(C)CN3S(C)(=O)=O (stereo not drawn) [Compound B167] | 10 to 100 nM | 10 to 100 nM | 
CNC(=O)c1c(-c2ccc(Oc3ccc(F)cc3)cc2)oc2cc3c(cc12)C(C)OC(CCS(C)(=O)=O)CN3S(C)(=O)=O (stereo not drawn) [Compound B236] | ≤ 10 nM | < 10 nM | 
CC1CCCN(S(C)(=O)=O)c2cc3oc(-c4ccc(Oc5ccc(F)cc5)cc4)c(-c4ncc[nH]4)c3cc21 (stereo not drawn) [Compound B198] | ≤ 10 nM | < 10 nM | 
CNC(=O)c1c(-c2ccc(F)cc2)oc2cc3c(cc12)C(C)OC(CNC(=O)OC)CN3S(C)(=O)=O (stereo not drawn) [Compound B221] | ≤ 10 nM | < 10 nM | 
[2H]C([2H])([2H])NC(=O)c1c(-c2ccc(F)cc2)nn2cc3c(cc12)CCCCCN3S(C)(=O)=O [Compound B126] |  | 10 to 100 nM | 
CNC(=O)c1c(-c2ccc(F)cc2)oc2cc3c(cc12)C(C)CCCCN3S(C)(=O)=O (stereo not drawn) [Compound B94] | ≤ 10 nM | < 10 nM | 

— US20130302282A1, “Inhibitors of Hepatitis C Virus” (priority 2010, published 2013)
